Where “and” joins values, the source holds several entries; their conditions need not be identical. Equal values may be shown once.
Columns and labels:
[1] = test system: β2AR; test: Radiolabelled antagonist-binding assay (saturation); parameters: species or system human; Bmax / 125I-Cyanopindolol saturation binding signal: unit not given here; conditions: for Bmax / fmol 125I-Cyanopindolol/mg sample: replicates 1-3 and Average; for fmol 125I-Cyanopindolol/mg sample, Fit: fitted curve;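 on all read-outs here: membranes expressing β2AR constructs, equilibrated with radioligand on ice, bound ligand retained on GF/C filters, Bmax normalized to membrane protein from a DC assay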
[2] = test system: Untransfected; test: Radiolabelled antagonist-binding assay (saturation), untransfected control sample; conditions: fitted curve
Source text: Supplement 41586_2023_5789_MOESM3_ESM.xlsx, sheet "Extended Data Figure 3J"

[3] = Sensor + Gs-peptide, 125I-Cyanopindolol 0.000239059 nM
[4] = Sensor + Gs-peptide, 125I-Cyanopindolol 0.0167722 nM
[5] = Sensor + Gs-peptide, 125I-Cyanopindolol 0.0344858 nM
[6] = Sensor + Gs-peptide, 125I-Cyanopindolol 0.073983 nM
[7] = Sensor + Gs-peptide, 125I-Cyanopindolol 0.202201 nM
[8] = Sensor + Gs-peptide, 125I-Cyanopindolol 0.415365 nM
[9] = Sensor + Gs-peptide, 125I-Cyanopindolol 0.83063 nM
[10] = Sensor + Gs-peptide, 125I-Cyanopindolol 1.64238 nM

Which results are given for [^125I](±)-cyanopindolol?
Bmax ([1]; Sensor + Gs-pep): 1992.85 and 2334.87 and 1180.14; fmol 125I-Cyanopindolol/mg sample, Fit [1, 3]: 0.00E+00 fmol/mg sample; fmol 125I-Cyanopindolol/mg sample [1, 3]: -1.828 fmol/mg sample and 0.6291 fmol/mg sample and 0.5155 fmol/mg sample; fmol 125I-Cyanopindolol/mg sample, Fit [1, 4]: 3.85E+02 fmol/mg sample; fmol 125I-Cyanopindolol/mg sample [1, 4]: 331.932 fmol/mg sample and 483.578 fmol/mg sample and 237.189 fmol/mg sample; fmol 125I-Cyanopindolol/mg sample, Fit [1, 5]: 6.37E+02 fmol/mg sample; fmol 125I-Cyanopindolol/mg sample [1, 5]: 633.08 fmol/mg sample and 885.671 fmol/mg sample and 427.455 fmol/mg sample; fmol 125I-Cyanopindolol/mg sample, Fit [1, 6]: 9.68E+02 fmol/mg sample; fmol 125I-Cyanopindolol/mg sample [1, 6]: 973.823 fmol/mg sample and 1370.71 fmol/mg sample and 652.022 fmol/mg sample; fmol 125I-Cyanopindolol/mg sample, Fit [1, 7]: 1.38E+03 fmol/mg sample; fmol 125I-Cyanopindolol/mg sample [1, 7]: 1415.68 fmol/mg sample and 1842.87 fmol/mg sample and 880.16 fmol/mg sample; fmol 125I-Cyanopindolol/mg sample, Fit [1, 8]: 1.58E+03 fmol/mg sample; fmol 125I-Cyanopindolol/mg sample [1, 8]: 1527.87 fmol/mg sample and 2049.46 fmol/mg sample and 1008.05 fmol/mg sample; fmol 125I-Cyanopindolol/mg sample, Fit [1, 9]: 1.71E+03 fmol/mg sample; fmol 125I-Cyanopindolol/mg sample [1, 9]: 1817.18 fmol/mg sample and 2238.94 fmol/mg sample and 1107.54 fmol/mg sample; fmol 125I-Cyanopindolol/mg sample, Fit [1, 10]: 1.78E+03 fmol/mg sample; fmol 125I-Cyanopindolol/mg sample [1, 10]: 1925.74 fmol/mg sample and 2301.14 fmol/mg sample and 1169.54 fmol/mg sample; fmol 125I-Cyanopindolol/mg sample ([1]; Sensor + Gs-peptide, 125I-Cyanopindolol 1.64238 nM, mean): 1798.81 fmol/mg sample; fmol 125I-Cyanopindolol/mg sample, Fit ([1]; Sensor, 125I-Cyanopindolol 0.0198458 nM (Average)): 3.34E+02 fmol/mg sample; fmol 125I-Cyanopindolol/mg sample, Fit ([1]; Sensor, 125I-Cyanopindolol 0.0420593 nM (Average)): 5.96E+02 fmol/mg sample; fmol 125I-Cyanopindolol/mg sample, Fit ([1]; Sensor, 125I-Cyanopindolol 0.234223 nM (Average)): 1.38E+03 fmol/mg sample; fmol 125I-Cyanopindolol/mg sample, Fit ([1]; Sensor, 125I-Cyanopindolol 0.468204 nM (Average)): 1.60E+03 fmol/mg sample; fmol 125I-Cyanopindolol/mg sample, Fit ([1]; Sensor, 125I-Cyanopindolol 0.871756 nM (Average)): 1.73E+03 fmol/mg sample; fmol 125I-Cyanopindolol/mg sample, Fit ([1]; Sensor, 125I-Cyanopindolol 1.70257 nM (Average)): 1.81E+03 fmol/mg sample; Bmax ([1]; Sensor): 1914.14 and 2557.54 and 1116.04; 125I-Cyanopindolol saturation binding signal ([1]; ∆ICL3 + 30 µM Q, 0.0283 nM, Average): 236.51; 125I-Cyanopindolol saturation binding signal ([1]; ∆ICL3 + 30 µM Q, 0.0283 nM, Fit): 285.20; 125I-Cyanopindolol saturation binding signal ([1]; ∆ICL3 + 30 µM Q, 0.0283 nM, experiments 1-3): 222.98 and 255.55 and 231.00; 125I-Cyanopindolol saturation binding signal ([1]; ∆ICL3 + 30 µM Q, 0.0474 nM, Average): 366.56; 125I-Cyanopindolol saturation binding signal ([1]; ∆ICL3 + 30 µM Q, 0.0474 nM, Fit): 463.24; 125I-Cyanopindolol saturation binding signal ([1]; ∆ICL3 + 30 µM Q, 0.0474 nM, experiments 1-3): 296.41 and 421.89 and 381.36; 125I-Cyanopindolol saturation binding signal ([1]; ∆ICL3 + 30 µM Q, 0.10 nM, Average): 910.97; 125I-Cyanopindolol saturation binding signal ([1]; ∆ICL3 + 30 µM Q, 0.10 nM, Fit): 816.24; 125I-Cyanopindolol saturation binding signal ([1]; ∆ICL3 + 30 µM Q, 0.10 nM, experiments 1-3): 840.60 and 993.89 and 898.42; 125I-Cyanopindolol saturation binding signal ([1]; ∆ICL3 + 30 µM Q, 1.85 nM, Average): 1906.34; 125I-Cyanopindolol saturation binding signal ([1]; ∆ICL3 + 30 µM Q, 1.85 nM, Fit): 1809.97; 125I-Cyanopindolol saturation binding signal ([1]; ∆ICL3 + 30 µM Q, 1.85 nM, experiments 1-3): 1586.99 and 2170.25 and 1961.77; 125I-Cyanopindolol saturation binding signal ([1]; ∆ICL3, 0.0283 nM, Average): 126.54; 125I-Cyanopindolol saturation binding signal ([1]; ∆ICL3, 0.0283 nM, Fit): 399.52; 125I-Cyanopindolol saturation binding signal ([1]; ∆ICL3, 0.0283 nM, experiments 1-3): 94.88 and 85.74; 125I-Cyanopindolol saturation binding signal ([1]; ∆ICL3, 0.0474 nM, Average): 687.11; 125I-Cyanopindolol saturation binding signal ([1]; ∆ICL3, 0.0474 nM, Fit): 612.62; 125I-Cyanopindolol saturation binding signal ([1]; ∆ICL3, 0.10 nM, Average): 1201.35; 125I-Cyanopindolol saturation binding signal ([1]; ∆ICL3, 0.10 nM, Fit): 1024.98; 125I-Cyanopindolol saturation binding signal ([1]; ∆ICL3, 1.85 nM, Average): 2504.14; 125I-Cyanopindolol saturation binding signal ([1]; ∆ICL3, 1.85 nM, Fit): 2413.51; 125I-Cyanopindolol saturation binding signal ([1]; ∆ICL3, 1.85 nM, experiments 1-3): 2561.55 and 2855.56 and 2095.33; fmol 125I-Cyanopindolol/mg sample, Fit ([2]; 125I-Cyanopindolol 0.0198458 nM (Average)): 7.834e-5 fmol/mg sample; fmol 125I-Cyanopindolol/mg sample, Fit ([2]; 125I-Cyanopindolol 0.0420593 nM (Average)): 0.0001875 fmol/mg sample; fmol 125I-Cyanopindolol/mg sample, Fit ([2]; 125I-Cyanopindolol 0.234223 nM (Average)): 0.05859 fmol/mg sample; fmol 125I-Cyanopindolol/mg sample, Fit ([2]; 125I-Cyanopindolol 0.468204 nM (Average)): 1.044 fmol/mg sample; fmol 125I-Cyanopindolol/mg sample, Fit ([2]; 125I-Cyanopindolol 0.871756 nM (Average)): 13.7262 fmol/mg sample; fmol 125I-Cyanopindolol/mg sample, Fit ([2]; 125I-Cyanopindolol 1.70257 nM (Average)): 172.555 fmol/mg sample
